Consider 35 compounds from patent US20060063759A1, “Tricyclic steroid hormone nuclear receptor modulators” (priority 2002, published 2006).

A word on the Ki: it is the dissociation constant of the complex between target and ligand, obtained from inhibition or displacement.

Assay [1] concerns the target T1, human MR (Homo sapiens, UniProt P08235).
T1 construct: The full length human MR gene is cloned from a human kidney or human brain cDNA library; His tag from the pAcHLT vector (own knowledge); made in house; host or cells: Sf9 insect cells (baculovirus, pAcHLT transfer vector)
T1 sequence (P08235 1-984): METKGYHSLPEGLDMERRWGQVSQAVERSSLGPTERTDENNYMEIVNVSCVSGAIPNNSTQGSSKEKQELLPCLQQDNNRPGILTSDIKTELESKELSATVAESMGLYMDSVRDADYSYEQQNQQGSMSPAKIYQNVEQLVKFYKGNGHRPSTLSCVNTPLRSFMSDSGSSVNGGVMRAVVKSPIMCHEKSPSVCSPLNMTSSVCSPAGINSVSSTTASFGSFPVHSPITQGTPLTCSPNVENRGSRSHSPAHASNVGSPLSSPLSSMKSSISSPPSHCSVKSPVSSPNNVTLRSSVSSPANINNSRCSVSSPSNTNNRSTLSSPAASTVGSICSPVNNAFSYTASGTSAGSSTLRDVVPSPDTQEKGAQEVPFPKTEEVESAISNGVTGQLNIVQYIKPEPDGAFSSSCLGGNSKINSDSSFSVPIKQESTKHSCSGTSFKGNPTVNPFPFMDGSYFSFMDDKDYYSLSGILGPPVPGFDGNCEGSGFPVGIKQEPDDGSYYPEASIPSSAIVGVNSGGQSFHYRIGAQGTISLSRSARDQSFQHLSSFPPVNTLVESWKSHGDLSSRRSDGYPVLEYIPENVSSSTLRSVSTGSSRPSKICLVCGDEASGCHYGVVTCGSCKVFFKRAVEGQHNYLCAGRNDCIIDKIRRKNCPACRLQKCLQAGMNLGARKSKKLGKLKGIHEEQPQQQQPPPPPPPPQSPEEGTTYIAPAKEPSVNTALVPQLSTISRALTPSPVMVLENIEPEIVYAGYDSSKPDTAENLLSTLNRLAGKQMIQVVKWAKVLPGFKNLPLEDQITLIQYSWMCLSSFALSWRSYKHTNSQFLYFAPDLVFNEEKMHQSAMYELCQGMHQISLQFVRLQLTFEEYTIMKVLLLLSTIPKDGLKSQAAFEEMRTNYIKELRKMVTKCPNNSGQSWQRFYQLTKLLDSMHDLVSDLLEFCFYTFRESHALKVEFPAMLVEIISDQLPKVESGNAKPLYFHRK
Nature of the assay: Mineralocorticoid Receptor Binding Assay ([3H]-aldosterone). The settings on record: [3H]-aldosterone binding, human MR expressed in Sf9 cells; read-out: MR Ki. In a few lines:
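Receptor source: freeze-thaw lysate of baculovirus-infected Sf9 cells carrying full-length human MR, 20-25 μg protein. Incubation ~16 h at 4 °C with shaking, pH 7.5 buffer containing 30 mM sodium molybdate and 10% glycerol.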

Assay [2] concerns the target T2, glucocorticoid receptor (Homo sapiens, UniProt P04150).
T2 construct: containing 50-200 ug of A549 cell extract and 1.86 nM [^3H]-dexamethasone; host or cells: A549 human lung epithelial cells (sonicated cell extract)
T2 sequence (P04150 1-777): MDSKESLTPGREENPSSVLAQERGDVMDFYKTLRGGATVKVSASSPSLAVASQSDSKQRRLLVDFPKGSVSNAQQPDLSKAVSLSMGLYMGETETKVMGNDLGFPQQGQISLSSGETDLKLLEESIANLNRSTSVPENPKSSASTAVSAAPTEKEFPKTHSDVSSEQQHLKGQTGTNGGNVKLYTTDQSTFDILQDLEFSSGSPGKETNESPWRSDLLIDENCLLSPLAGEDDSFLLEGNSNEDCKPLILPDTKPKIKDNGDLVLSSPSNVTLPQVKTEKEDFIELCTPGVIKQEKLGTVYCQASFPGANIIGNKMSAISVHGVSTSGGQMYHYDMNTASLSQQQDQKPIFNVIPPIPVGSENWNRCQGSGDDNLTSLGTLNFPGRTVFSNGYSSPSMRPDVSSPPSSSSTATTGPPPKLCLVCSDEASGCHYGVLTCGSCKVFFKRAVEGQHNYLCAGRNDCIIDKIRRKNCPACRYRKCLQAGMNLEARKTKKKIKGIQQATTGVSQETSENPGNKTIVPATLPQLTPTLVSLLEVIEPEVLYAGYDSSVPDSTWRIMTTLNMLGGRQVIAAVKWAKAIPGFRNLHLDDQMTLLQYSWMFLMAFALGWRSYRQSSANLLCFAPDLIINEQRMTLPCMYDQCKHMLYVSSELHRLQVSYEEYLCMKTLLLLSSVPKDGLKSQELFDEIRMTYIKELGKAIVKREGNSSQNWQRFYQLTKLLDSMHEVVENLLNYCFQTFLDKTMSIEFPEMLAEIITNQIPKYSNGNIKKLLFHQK
Nature of the assay: Glucocorticoid Receptor Binding Assay ([3H]-dexamethasone, A549 cell extract). The settings on record: [3H]-dexamethasone binding, read-out: GR Ki. The essentials:
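Displacement of [3H]-dexamethasone (1.86 nM) from glucocorticoid receptor in sonicated A549 lung epithelial cell extracts, 16 h at 4 °C, pH 7.2 molybdate-containing buffer. Bound radioactivity was scintillation-counted after charcoal/dextran stripping of free ligand.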

Regarding `Oc1cccc(C=C2c3ccc(O)cc3CCc3cc(O)ccc32)c1` [Example 194, 5-(3-Hydroxy-benzylidene)-10,11-dihydro-5H-dibenzo[a,d]cycloheptene-2,8-diol], the Ki in assay [1] and in assay [2] was below 500 nM in each case.

Turning to `CS(=O)(=O)Nc1cc(/C=C2\c3ccc(F)cc3CCc3ncccc32)ccc1F` [Example 524], the Ki in assay [1] and in assay [2] was below 500 nM in each case.

As to `CS(=O)(=O)NCc1cccc(/C=C2\c3ccccc3CSc3ccccc32)c1` [Example 722], the Ki in assay [1] and in assay [2] was below 500 nM each time.

On to `CS(=O)(=O)Nc1cccc(CC2c3ccccc3CCc3ccccc32)c1` [Example 125, N-[3-(10,11-Dihydro-5H-dibenzo[a,d]cyclohepten-5-ylmethyl)-phenyl]-methanesulfonamide], for which the Ki in assay [1] and in assay [2] was below 500 nM in each case.

For `COc1ccc2c(c1)COc1ccccc1/C2=C\c1cccc(NS(C)(=O)=O)c1` [Example 705], the Ki in assay [1] and in assay [2] was below 500 nM each time.

For `CS(=O)(=O)Nc1cccc(/C=C2\c3scnc3CCc3cccc(Cl)c32)c1` [Example 554], the Ki is below 500 nM in assay [1] and below 1000 nM in assay [2].

With `O=c1[nH]c2cc(/C=C3\c4ccccc4CCc4ncsc43)ccc2o1` [Example 562], the Ki in assay [1] and in assay [2] was below 500 nM in each case.

On to `C/C(=C1/c2ccccc2COc2cc(OCC3CC3)ccc21)c1cccc(NS(C)(=O)=O)c1` [Example 814], for which the Ki in assay [1] and in assay [2] was below 500 nM each time.

Regarding `Fc1ccc2c(c1)CCc1ncccc1/C2=C\c1ccccc1` [Example 527], the figures for the Ki in assay [1] and in assay [2] were below 500 nM and below 10000 nM, respectively.

`CS(=O)(=O)Nc1cccc(/C=C2\c3ccccc3CCc3cc(C(F)(F)F)ccc32)c1` [Example 391]: the Ki in assay [1] and in assay [2] was below 500 nM throughout.

As for `CC(C)Cn1c(=O)[nH]c2cc(/C=C3\c4ccccc4COc4cc(F)ccc43)ccc21` [Example 710], the Ki in assay [1] and in assay [2] was below 500 nM each time.

Consider `COc1ccc2c(c1)CCc1ccccc1C2=Cc1cccc(NS(C)(=O)=O)c1` [Example 161, N-[3-(2-Methoxy-10,11-dihydro-dibenzo[a,d]cyclohepten-5-ylidenemethyl)-phenyl]-methanesulfonamide], for which the Ki in assay [1] and in assay [2] was below 500 nM each time.

`O=c1[nH]c2cc(/C=C3\c4ccccc4COc4cc(Cl)ccc43)ccc2n1CCN1CCOCC1` [Example 647]: the Ki in assay [1] was below 500 nM; in assay [2], below 1000 nM.

Turning to `O=c1[nH]c2cc(/C=C3\c4ccccc4CCc4cc(F)ccc43)ccc2s1` [Example 469], the Ki in assay [1] and in assay [2] was below 500 nM in each case.

As to `CS(=O)(=O)Nc1cccc(/C=C2/c3ccc(F)cc3CCc3nc(C#N)ccc32)c1` [Example 546], the Ki in assay [1] and in assay [2] was below 500 nM in each case.

With `Cc1ccc(CC2c3ccccc3CCc3ccccc32)cc1NS(C)(=O)=O` [Example 286], the figures for the Ki in assay [1] and in assay [2] were below 500 nM and below 10000 nM, respectively.

Take `Cc1cccc(C=C2c3ccccc3CCc3cc(Cl)ccc32)c1` [Example 177, 2-Chloro-5-(3-methyl-benzylidene)-10,11-dihydro-5H-dibenzo[a,d]cycloheptene]: the figures for the Ki in assay [1] and in assay [2] were below 500 nM and below 1000 nM, respectively.

With `COc1cc(C=C2c3ccccc3CCc3ccccc32)ccc1F` [Example 148, 5-(4-Fluoro-3-methoxy-benzylidene)-10,11-dihydro-5H-dibenzo[a,d]cycloheptene], the results for the Ki in assay [1] and in assay [2] were below 500 nM and below 1000 nM, respectively.

Take `O=c1[nH]c2cc(/C=C3\c4ccccc4CCc4c(Cl)cccc43)ccc2o1` [Example 221(b)]: the Ki in assay [1] and in assay [2] was below 500 nM throughout.

For the compound `C/C(=C1\c2ccccc2COc2cc(C)c(Br)cc21)c1cccc(NS(C)(=O)=O)c1` [Example 785], the Ki in assay [1] and in assay [2] was below 500 nM in each case.

Regarding `CCC(=C1c2ccccc2CCc2cc(C)ccc21)c1cccc(NS(C)(=O)=O)c1` [Example 774], the Ki in assay [1] and in assay [2] was below 500 nM each time.

In the case of `O=c1[nH]c2cc(C=C3c4ccc(F)cc4CCc4cc(F)ccc43)ccc2s1` [Example 457], the Ki in assay [1] and in assay [2] was below 500 nM throughout.

Consider `OCc1cccc(C=C2c3ccccc3CCc3ccccc32)c1` [Example 75, [3-(10,11-Dihydro-dibenzo[a,d]cyclohepten-5-ylidenemethyl)-phenyl]-methanol], for which the Ki in assay [1] and in assay [2] was below 500 nM throughout.

`C/C(=C1/c2ccccc2CCc2cc(Cl)ccc21)c1cccc(NS(C)(=O)=O)c1` [Example 794]: the Ki in assay [1] and in assay [2] was below 500 nM throughout.

Consider `O=c1[nH]c2ccc(/C=C3/c4ccccc4CCc4cc(F)ccc43)cc2[nH]1` [Example 449], for which the Ki was below 500 nM in assay [1] and below 10000 nM in assay [2].

With `CS(=O)(=O)Nc1ccc(/C=C2/c3ccc(F)cc3CCc3ncccc32)cc1` [Example 537], the Ki in assay [1] was below 500 nM; in assay [2], below 10000 nM.

With `COc1ccc2c(c1)OCc1ccccc1/C2=C\c1cccc(NS(C)(=O)=O)c1` [Example 661], the Ki in assay [1] and in assay [2] was below 500 nM throughout.

For `CS(=O)(=O)Nc1cccc(/C=C2/c3ccccc3CCc3ccsc32)c1` [Example 502], the Ki in assay [1] and in assay [2] was below 500 nM in each case.

Take `O=c1[nH]c2ccc(/C=C3\c4ccccc4CCc4cc(C(F)F)ccc43)cc2[nH]1` [Example 453]: the Ki was below 500 nM in assay [1] and below 1000 nM in assay [2].

For `O=Cc1cccc2c1CCc1ccccc1/C2=C/c1cccc(O)c1` [Example 379], the Ki in assay [1] is below 500 nM; in assay [2], below 10000 nM.

Consider `Cc1ccc2c(c1)/C(=C\c1cccc(NS(C)(=O)=O)c1)c1ccccc1CO2` [Example 677], for which the Ki in assay [1] and in assay [2] was below 500 nM each time.

For the compound `CS(=O)(=O)Nc1cccc(/C=C2/c3ccccc3CCc3cc(C(F)F)ccc32)c1` [Example 374], the Ki in assay [1] and in assay [2] was below 500 nM in each case.

With `CS(=O)(=O)Nc1cccc(/C=C2\c3ccccc3COc3cc(F)ccc32)c1` [Example 630], the inhibitory constant (Ki) in assay [1] and in assay [2] was below 500 nM in each case.

As for `Cc1cc(C)cc(C=C2c3ccccc3CCc3sccc32)c1` [Example 491], the Ki in assay [1] is below 500 nM; in assay [2], below 10000 nM.

On to `O=c1[nH]c2ccc(C=C3c4cccc(F)c4CCc4c(F)cccc43)cc2[nH]1` [Example 470], for which the values for the Ki in assay [1] and in assay [2] were below 500 nM and below 10000 nM, respectively.
